Structures are written as SMILES. A value given as a limit tells only on which side of the number the result lay.

Holding throughout (format): cell-based
In assay [1] the target is T1, SMARCA4 (Homo sapiens, UniProt P51532).
T1 construct: SMARCA2/SMARCA4 protein degradation selectivity in MV4-11 cells; endogenous in cells; host or cells: MV4-11
The experiment in a line: SMARCA4 Western blot degradation in MV4-11 cells. Conditions: for Dmax: MV4-11, MV4-11 cells, read-out: SMARCA4 MSD MV411 degradation 24 h: average Dmax %; for Dmax / DC50: 24 h; for DC50 / SMARCA4 MSD MV411 degradation 24 h: average Dmax %: MV4-11 cells; for DC50: read-out: SMARCA4 MSD MV411 degradation 24 h: Mean external-Abs DC50. The gist of the method:
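Fluorescent LI-COR imaging of Western blots quantified SMARCA2 and SMARCA4 protein remaining in MV4-11 cells after 24 h of compound treatment. β-actin was the loading control, and DC50, Dmax and SMARCA2/4 selectivity are given as letter-coded ranges.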

Assay [2] addresses T2, SMARCA2 (Homo sapiens, UniProt P51531). The experiment in a line: SMARCA2 Western blot degradation in MV4-11 cells. More on the design: SMARCA2/SMARCA4 protein degradation selectivity in MV4-11 cells; endogenous in cells; host or cells: MV4-11. To be noted: for Dmax: MV4-11, MV4-11 cells, read-out: SMARCA2 MSD MV411 degradation 24 h: average Dmax %; for Dmax / DC50 / SMARCA2 MSD MV411 degradation 24 h: average Dmax %: 24 h; for DC50 / Selectivity in MV411 / SMARCA2 MSD MV411 degradation 24 h: average Dmax %: MV4-11 cells; for DC50: read-out: SMARCA2 MSD MV411 degradation 24 h: Mean external-Abs DC50; for Selectivity in MV411: SMARCA2/4 selectivity.

The target of assay [3] is T2, SMARCA2. Briefly: MSD SMARCA2 degradation in A549 cell line. Conditions: for Dmax: A549, A549 cells; for Dmax / DC50: 24 h; for DC50 / SMARCA2 MSD A549 degradation 24 h: Average Dmax %: A549 cells; for DC50: read-out: SMARCA2 MSD A549 degradation 24 h: Average external-Abs DC50. Put shortly: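 SMARCA2 protein remaining after 24 h exposure of A549 cells (top concentration 1000 nM, 3-fold dilutions) was measured by MSD electrochemiluminescence immunoassay of cell lysates. Results are given as binned DC50 and maximal degradation (Dmax) codes.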

T1 sequence (P51532 whole entry): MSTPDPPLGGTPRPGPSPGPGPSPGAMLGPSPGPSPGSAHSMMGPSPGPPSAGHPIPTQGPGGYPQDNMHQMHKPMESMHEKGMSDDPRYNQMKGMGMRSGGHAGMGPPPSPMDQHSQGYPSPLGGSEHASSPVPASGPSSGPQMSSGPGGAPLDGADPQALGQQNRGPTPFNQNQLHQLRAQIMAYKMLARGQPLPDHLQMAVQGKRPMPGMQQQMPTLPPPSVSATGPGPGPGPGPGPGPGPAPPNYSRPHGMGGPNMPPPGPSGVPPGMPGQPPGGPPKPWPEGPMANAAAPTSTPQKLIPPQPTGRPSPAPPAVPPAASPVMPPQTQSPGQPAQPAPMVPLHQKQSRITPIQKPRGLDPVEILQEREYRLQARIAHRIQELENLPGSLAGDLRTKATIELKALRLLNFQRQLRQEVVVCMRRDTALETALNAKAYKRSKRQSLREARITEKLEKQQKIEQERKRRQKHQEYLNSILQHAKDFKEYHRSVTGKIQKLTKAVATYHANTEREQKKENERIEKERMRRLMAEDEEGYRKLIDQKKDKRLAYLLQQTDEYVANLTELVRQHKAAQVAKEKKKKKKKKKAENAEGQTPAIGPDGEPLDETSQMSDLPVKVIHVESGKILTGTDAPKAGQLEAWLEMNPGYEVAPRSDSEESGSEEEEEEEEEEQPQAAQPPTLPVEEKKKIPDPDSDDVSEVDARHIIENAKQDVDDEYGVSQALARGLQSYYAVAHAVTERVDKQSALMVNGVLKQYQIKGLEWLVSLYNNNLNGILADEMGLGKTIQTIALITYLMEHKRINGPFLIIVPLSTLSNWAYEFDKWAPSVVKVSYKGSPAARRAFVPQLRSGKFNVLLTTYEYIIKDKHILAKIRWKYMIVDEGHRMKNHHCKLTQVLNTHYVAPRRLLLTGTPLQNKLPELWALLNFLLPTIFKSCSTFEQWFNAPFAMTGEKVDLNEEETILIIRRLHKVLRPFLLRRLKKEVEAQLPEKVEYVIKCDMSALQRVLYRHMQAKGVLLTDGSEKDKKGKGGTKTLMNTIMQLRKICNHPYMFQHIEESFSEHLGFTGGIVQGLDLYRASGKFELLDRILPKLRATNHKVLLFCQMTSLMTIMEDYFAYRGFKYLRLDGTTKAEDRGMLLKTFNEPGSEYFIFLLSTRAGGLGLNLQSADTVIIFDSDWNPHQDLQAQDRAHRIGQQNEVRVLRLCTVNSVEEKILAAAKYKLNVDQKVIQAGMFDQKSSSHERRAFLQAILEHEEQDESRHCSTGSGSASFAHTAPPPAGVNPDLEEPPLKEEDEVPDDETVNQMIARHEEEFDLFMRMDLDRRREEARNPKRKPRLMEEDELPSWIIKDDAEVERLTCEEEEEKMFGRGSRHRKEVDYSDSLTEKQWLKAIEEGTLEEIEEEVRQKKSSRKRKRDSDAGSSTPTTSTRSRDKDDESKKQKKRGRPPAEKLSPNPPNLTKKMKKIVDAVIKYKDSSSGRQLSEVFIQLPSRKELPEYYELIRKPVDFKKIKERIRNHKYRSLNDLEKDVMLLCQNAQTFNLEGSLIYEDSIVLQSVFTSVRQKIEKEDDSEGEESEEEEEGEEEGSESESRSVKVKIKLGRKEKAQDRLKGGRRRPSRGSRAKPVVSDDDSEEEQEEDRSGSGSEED
T2 sequence (P51531 whole entry): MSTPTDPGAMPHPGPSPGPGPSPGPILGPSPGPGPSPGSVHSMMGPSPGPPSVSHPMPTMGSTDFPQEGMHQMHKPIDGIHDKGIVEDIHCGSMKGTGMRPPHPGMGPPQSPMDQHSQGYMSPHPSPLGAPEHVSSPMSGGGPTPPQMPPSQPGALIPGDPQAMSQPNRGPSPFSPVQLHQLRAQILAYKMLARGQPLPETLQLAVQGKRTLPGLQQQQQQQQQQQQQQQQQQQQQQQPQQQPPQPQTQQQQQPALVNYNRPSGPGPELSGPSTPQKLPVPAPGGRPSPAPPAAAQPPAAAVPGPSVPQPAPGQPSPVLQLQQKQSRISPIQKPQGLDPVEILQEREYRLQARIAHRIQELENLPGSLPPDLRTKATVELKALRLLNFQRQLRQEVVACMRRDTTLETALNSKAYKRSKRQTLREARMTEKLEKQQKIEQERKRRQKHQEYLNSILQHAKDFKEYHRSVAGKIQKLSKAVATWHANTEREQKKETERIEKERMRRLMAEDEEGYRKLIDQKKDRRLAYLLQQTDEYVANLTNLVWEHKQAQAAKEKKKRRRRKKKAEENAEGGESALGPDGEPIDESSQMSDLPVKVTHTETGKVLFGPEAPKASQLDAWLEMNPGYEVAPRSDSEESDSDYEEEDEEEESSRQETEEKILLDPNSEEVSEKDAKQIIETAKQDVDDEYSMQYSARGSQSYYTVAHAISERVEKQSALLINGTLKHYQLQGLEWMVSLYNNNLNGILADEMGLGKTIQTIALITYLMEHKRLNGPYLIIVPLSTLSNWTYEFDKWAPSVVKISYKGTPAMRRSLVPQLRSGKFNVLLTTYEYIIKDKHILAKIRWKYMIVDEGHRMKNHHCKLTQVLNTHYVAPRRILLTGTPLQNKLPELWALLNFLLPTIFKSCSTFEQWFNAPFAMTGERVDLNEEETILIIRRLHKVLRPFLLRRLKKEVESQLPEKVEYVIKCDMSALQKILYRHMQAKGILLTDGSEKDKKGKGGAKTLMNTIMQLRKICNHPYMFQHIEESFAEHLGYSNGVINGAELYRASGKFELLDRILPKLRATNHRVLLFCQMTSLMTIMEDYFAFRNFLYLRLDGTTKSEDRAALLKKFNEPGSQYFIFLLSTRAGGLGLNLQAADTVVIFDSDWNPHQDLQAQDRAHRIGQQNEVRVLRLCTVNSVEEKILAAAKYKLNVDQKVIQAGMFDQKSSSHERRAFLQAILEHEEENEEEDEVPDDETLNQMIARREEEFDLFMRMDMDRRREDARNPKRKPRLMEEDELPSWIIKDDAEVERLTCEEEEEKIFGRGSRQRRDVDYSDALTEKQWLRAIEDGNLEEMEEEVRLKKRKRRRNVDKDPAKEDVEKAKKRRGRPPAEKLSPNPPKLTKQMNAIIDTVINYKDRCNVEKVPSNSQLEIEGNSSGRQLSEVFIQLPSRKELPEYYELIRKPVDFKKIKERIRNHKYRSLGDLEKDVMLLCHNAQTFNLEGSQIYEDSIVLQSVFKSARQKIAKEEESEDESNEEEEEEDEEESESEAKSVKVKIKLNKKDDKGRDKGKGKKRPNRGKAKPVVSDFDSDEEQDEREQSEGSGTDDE

Turning to `C#Cc1ccc([C@H](C)NC(=O)[C@@H]2C[C@@H](O)CN2C(=O)[C@H](c2cc(OCCN3CCN4c5cc(-c6ccccc6O)nnc5NC[C@H]4C3)no2)C(C)C)cc1` (single isomer, unassigned) [I-272], in assay [1], the Dmax is < 50% and the DC50 was > 100 nM. In assay [2], the Dmax lay in the range of 50 to 70%, the DC50 was > 100 nM and the “Selectivity in MV411” value is “C (C (10-100 fold))”. Besides, in assay [3], the Dmax was 50 to 70% and the DC50 was > 100 nM.
Regarding `C#Cc1ccc(CNC(=O)[C@@H]2C[C@@H](O)CN2C(=O)[C@@H](NC(=O)N2CC3(CC(N4CCC([C@H]5CC[C@H](N6CCc7[nH]c8nnc(-c9ccccc9O)cc8c7[C@H]6C)CC5)CC4)C3)C2)C(C)(C)C)cc1` [I-184], the Dmax is < 50% in assay [1], < 50% in assay [2] and > 90% in assay [3]. Moreover, the DC50 in assay [1], in assay [2] and in assay [3] was > 100 nM in each case. Besides, the “Selectivity in MV411” value in assay [2] is reported as “C (C (10-100 fold))”.
Regarding `C#Cc1ccc(CNC(=O)[C@@H]2C[C@@H](O)CN2C(=O)[C@@H](NC(=O)N2CC3(CC(N4CCN([C@H]5CC[C@@H](N6CCc7[nH]c8nnc(-c9ccccc9O)cc8c7[C@H]6C)CC5)CC4)C3)C2)C(C)(C)C)cc1` [I-187], in assay [1], the Dmax was in the range of 70 to 90% and the DC50 is > 100 nM. In assay [2], the Dmax was 70 to 90%, the DC50 is 1 to 10 nM and the “Selectivity in MV411” value is given as “C (C (10-100 fold))”. In addition, in assay [3], the Dmax is > 90% and the DC50 was in the range of 50 to 100 nM.
Turning to `Cc1ncsc1-c1ccc(CNC(=O)[C@@H]2C[C@@H](O)CN2C(=O)[C@@H](NC(=O)[C@H]2CC3(C2)C[C@H](N2CCN(c4cnc(N5CCc6[nH]c7nnc(-c8ccccc8O)cc7c6[C@H]5C)nc4)CC2)C3)C(C)(C)C)cc1` (single isomer, unassigned) [I-77], in assay [1], the “SMARCA4 MSD MV411 degradation 24 h: average Dmax %” value is on record as “D (D (<50% degradation))” and the DC50 was > 100 nM. Moreover, in assay [2], the “SMARCA2 MSD MV411 degradation 24 h: average Dmax %” value is reported as “B (B (>70-90% degradation))”, the DC50 is 1 to 10 nM and the “Selectivity in MV411” value was “C (C (10-100 fold))”. For the same compound, in assay [3], the “SMARCA2 MSD A549 degradation 24 h: Average Dmax %” value is recorded as “A (A (>90% degradation))” and the DC50 is 10 to 50 nM.
For `C[C@H](NC(=O)[C@@H]1C[C@@H](O)CN1C(=O)[C@@H](NC(=O)[C@H]1CCC2(CC1)C[C@H](N1CCC(c3cnc(N4CCN5c6cc(-c7ccccc7O)nnc6NC[C@H]5C4)nc3)CC1)C2)C(C)(C)C)c1ccc(-c2ccnn2C)cc1` (single isomer, unassigned) [I-22], in assay [1], the “SMARCA4 MSD MV411 degradation 24 h: average Dmax %” value is listed as “B (B (>70-90% degradation))” and the DC50 is 10 to 100 nM. Also, in assay [2], the “SMARCA2 MSD MV411 degradation 24 h: average Dmax %” value is “A (A (>90% degradation))”, the DC50 was < 1 nM and the “Selectivity in MV411” value is “C (C (10-100 fold))”. Besides, in assay [3], the “SMARCA2 MSD A549 degradation 24 h: Average Dmax %” value is listed as “A (A (>90% degradation))” and the DC50 lay in the range of 10 to 50 nM.
In the case of `C#Cc1ccc(CNC(=O)[C@@H]2C[C@@H](O)CN2C(=O)[C@@H](NC(=O)N2CC3(CC(N4CCC(c5cnc(N6CCc7[nH]c8nnc(-c9ccccc9O)cc8c7[C@H]6C)nc5)CC4)C3)C2)C(C)(C)CCO)c(Cl)c1` (single isomer, unassigned) [I-317], in assay [1], the Dmax lay within 70 to 90% and the DC50 is > 100 nM. Further, in assay [2], the Dmax lay in the range of 70 to 90%, the DC50 is 1 to 10 nM and the “Selectivity in MV411” value is reported as “C (C (10-100 fold))”. Further, in assay [3], the Dmax was > 90% and the DC50 lay in the range of 10 to 50 nM.
For `C#Cc1ccc(CNC(=O)[C@@H]2C[C@@H](O)CN2C(=O)[C@@H](NC(=O)[C@H]2CCC3(CC2)C[C@H](N2CCC(c4ccc(N5CCN6c7cc(-c8ccccc8O)nnc7NC[C@H]6C5)nc4)CC2)C3)C(C)(C)C)cc1` (single isomer, unassigned) [I-156], in assay [1], the “SMARCA4 MSD MV411 degradation 24 h: average Dmax %” value is on record as “B (B (>70-90% degradation))” and the DC50 lay in the range of 10 to 100 nM. Moreover, in assay [2], the “SMARCA2 MSD MV411 degradation 24 h: average Dmax %” value is recorded as “B (B (>70-90% degradation))”, the DC50 was in the range of 1 to 10 nM and the “Selectivity in MV411” value is reported as “C (C (10-100 fold))”. Further, in assay [3], the “SMARCA2 MSD A549 degradation 24 h: Average Dmax %” value is listed as “A (A (>90% degradation))” and the DC50 is 10 to 50 nM.
With `C#Cc1ccc(CNC(=O)[C@@H]2C[C@@H](O)CN2C(=O)[C@@H](NC(=O)N2CC3(CC(N4CCC(N5CCC(N6CCc7[nH]c8nnc(-c9ccccc9O)cc8c7[C@H]6C)CC5)CC4)C3)C2)C(C)(C)C)c(OC)c1` [I-183], in assay [1], the Dmax lay within 70 to 90% and the DC50 is > 100 nM. For the same compound, in assay [2], the Dmax was 70 to 90%, the DC50 is 10 to 100 nM and the “Selectivity in MV411” value is given as “C (C (10-100 fold))”. In addition, in assay [3], the Dmax was > 90% and the 50% degradation concentration (DC50) was > 100 nM.
For the compound `C#Cc1ccc(CNC(=O)[C@@H]2C[C@@H](O)CN2C(=O)[C@@H](NC(=O)N2CC3(CC(N4CCC(c5cnc(N6CCc7[nH]c8nnc(-c9ccccc9O)cc8c7[C@H]6C)nc5)CC4)C3)C2)C(C)(C)C)c(OCC(=O)O)c1` [I-144], the results for the Dmax in assay [1], in assay [2] and in assay [3] were 70 to 90%, 70 to 90% and > 90%, respectively. Also, the DC50 is > 100 nM in assay [1], 1 to 10 nM in assay [2] and 10 to 50 nM in assay [3]. The “Selectivity in MV411” value in assay [2] was “C (C (10-100 fold))”.
As for `C#Cc1ccc(CNC(=O)[C@@H]2C[C@@H](O)CN2C(=O)[C@@H](NC(=O)[C@H]2CC3(C2)C[C@H](N2CCC(N4CCC(N5CCN6c7cc(-c8ccccc8O)nnc7NC[C@H]6C5)CC4)CC2)C3)C(C)(C)C)c(OC)c1` (single isomer, unassigned) [I-232], in assay [1], the “SMARCA4 MSD MV411 degradation 24 h: average Dmax %” value is recorded as “B (B (>70-90% degradation))” and the DC50 fell in the range of 10 to 100 nM. Also, in assay [2], the “SMARCA2 MSD MV411 degradation 24 h: average Dmax %” value was “A (A (>90% degradation))”, the DC50 was in the range of 1 to 10 nM and the “Selectivity in MV411” value was “C (C (10-100 fold))”. Moreover, in assay [3], the “SMARCA2 MSD A549 degradation 24 h: Average Dmax %” value is recorded as “A (A (>90% degradation))” and the DC50 is 10 to 50 nM.
As to `C#Cc1ccc(CNC(=O)[C@@H]2C[C@@H](O)CN2C(=O)[C@@H](NC(=O)N2CCC(N3CC4(CC(N5CC6(CC(N7CCc8[nH]c9nnc(-c%10ccccc%10O)cc9c8[C@H]7C)C6)C5)C4)C3)CC2)C(C)(C)C)cc1` [I-209], in assay [1], the Dmax is < 50% and the DC50 is > 100 nM. For the same compound, in assay [2], the Dmax is < 50%, the DC50 is > 100 nM and the “Selectivity in MV411” value is listed as “C (C (10-100 fold))”. In assay [3], the Dmax fell in the range of 70 to 90% and the DC50 is > 100 nM.
Regarding `Cc1ncsc1-c1ccc(CNC(=O)[C@@H]2C[C@@H](O)CN2C(=O)C(c2cc(OCCCCN3CCC(c4cnc(N5CCc6[nH]c7nnc(-c8ccccc8O)cc7c6[C@H]5C)nc4)CC3)no2)C(C)C)cc1` (stereo partly drawn) [I-35], in assay [1], the Dmax fell in the range of 70 to 90% and the DC50 lay in the range of 1 to 10 nM. Further, in assay [2], the Dmax is > 90%, the DC50 was 1 to 10 nM and the “Selectivity in MV411” value is listed as “D (D (<10 fold))”. Further, in assay [3], the Dmax lay in the range of 70 to 90% and the DC50 lay in the range of 10 to 50 nM.
